According to patent US20110224297A1, “Methods of administering prostratin and structural analogs thereof” (priority 2008, published 2011):
Where two headings read alike, the source gives them in different places.

Key:
[1] = test system: latently infected ACH-2 cells; assay: HIV expression (reverse transcriptase activity in supernatant) in latently infected ACH-2 cells; assay type: cell-based
Description: The effect of prostratin on virus replication was assessed in latently infected ACH-2 and U1 cells by measuring the accumulation of reverse transcriptase activity in the supernatant of stimulated cells (Gustafson et al., 1992, J Med Chem 35(11): 1978-86).
Briefly, 4×10^4 cells in 100 μl fresh medium were mixed with another 100 μl of medium with or without prostratin or PMA in a 96-well microtiter plate. Plates were incubated for 24-72 h at 37° C. Following incubation, supernatants were harvested, centrifuged (to remove any residual cells) and tested for reverse transcriptase activity as previously described (Gustafson et al., 1992, J Med Chem 35(11): 1978-86).
In these experiments, two concentrations of cells were tested (40,000 and 100,000 cells/well). It is noteworthy that the basal levels of reverse transcriptase activities were much higher in ACH-2 cells than in U1 cells.

[2] = In vitro metabolism in rat liver microsomes; assay type: in vitro ADME
Source text: (§1) In vitro metabolism of prostratin was investigated using mouse, rat, monkey, and human liver microsomes (Gentest). […] Attempts to identify the metabolite by LC/MS/MS were unsuccessful due to the low amounts present in the reaction mixtures (FIG. 1).

[3] = test system: PBMCs; details: alone or in conjunction with other activators; cited from earlier work
[4] = In vitro metabolism in mouse liver microsomes; assay type: in vitro ADME
Source text: as §1

[5] = Pharmacokinetic studies in mice; assay type: in vivo, CD2F1 mice
Description: Studies were conducted in CD2F1 mice using both the i.p. route (1.9 mg/kg) and the i.v. route (0.76 mg/kg). The vehicle was 10% DMSO: 10% Cremophor: 80%:0.9% saline for both routes. Doses used were preciously determined as maximally tolerated. Drug was detected out to 4 hr but was only quantifiable out to 3 hr post drug administration (see FIG. 5A, B). Data are presented as mean±SD where n=5. Data that were detected beyond 3 hr post drug administration are shown as “BLQ” (below the limit of quantification of the validated assay). Data were fit using 1 and 2 compartment pharmacokinetic models using ADAPT II computer program. In general the 2-compartment model provided a better fit for the data than did a 1-compartment model (Table 2). […] For the two-compartment model the situation was reversed (i.e. more variance for the model predicted PK parameters with lower residual values for the individual plasma concentration data).

[6] = Stability of prostratin in mouse plasma; assay type: in vitro ADME; details: 24 hr incubation at 37° C.
Description: Prostratin is stable in plasma and buffer as well as in the stability formulation (see below) developed for in vivo studies in mice. Stability tests for prostratin in mouse and monkey plasma were done using two concentration (1 and 10 mg/ml) and two temperatures (Room Temperature (RT) and 37° C.). The only loss of drug occurred in mouse plasma after 24 hr incubation at 37° C. This represented only 14% decrease in parent drug peak area over this time frame. Prostratin is stable in PBS (phosphate buffer saline) at pH 2 and pH 7.

[7] = In vitro metabolism in monkey liver microsomes; assay type: in vitro ADME
Source text: as §1

[8] = Dose-range finding study in monkeys and determination of MTD; assay type: in vivo, rhesus macaque monkeys; details: rhesus monkey, in vivo
Description: (§2) After a suitable wash-out period (15-20 days), monkeys that previously received 0.1 mg/kg, were administered a dose of 0.6 mg/kg, and those that previously received 0.4 mg/kg, were administered a second dose of 0.4 mg/kg. Blood was collected as before for clinical pathology and cytokine assay analysis. There was no mortality in this study. However both animals receiving 0.6 mg/kg prostratin required more time (2-4 times as much) to recover from Ketamine (used as a chemical restraint while weighing and dosing) after the second dosing compared with the initial doses. On day 3, all monkeys had elevated (2-3 fold) fibrinogen levels and there was evidence of dose-dependent hepatotoxicity.

[9] = test system: rhesus macaque monkeys; assay: as above; assay type: in vivo
Description: as §2

[10] = test system: Salmonella typhimurium tester strains TA98, TA100, TA1535, and TA1537; assay: Salmonella/mammalian-microsome reverse mutation assay with confirmatory assay; assay type: cell-based; details: 100 to 5000 μg per plate; presence or absence of S9
Source text: The objective of this study was to evaluate the test article, prostratin, for the ability to induce reverse mutations either in the presence or absence of mammalian microsomal enzymes at 1) the histidine locus in the genome of several strains of Salmonella typhimurium and at 2) the tryptophan locus of Escherichia coli tester strain WP2uvrA.
The doses tested in the mutagenicity assay were selected based on the results of a dose range finding study using tester strains TA100 and WP2uvrA and ten doses of test article ranging from 6.67 to 5000 μg per plate, one plate per dose, both in the presence and absence of S9 mix.
The tester strains used in the mutagenicity assay were Salmonella typhimurium tester strains TA98, TA100, TA1535, and TA1537 and Escherichia coli tester strain WP2uvrA. The assay was conducted with five doses of test article in both the presence and absence of S9 mix along with concurrent vehicle and positive controls using three plates per dose. The doses tested were 100, 333, 1000, 3330, and 5000 μg per plate in both the presence and absence of S9 mix. The results of the initial mutagenicity assay were confirmed in an independent experiment.

[11] = Stability in the formulation vehicle for in vivo studies; assay type: physicochemical; details: 10% DMSO: 10% Cremophor: 80%:0.9% Saline; even at 37° C. for at least 2 hr
Description: Drug was dissolved in vehicle (10% DMSO: 10% Cremophor: 80%:0.9% Saline) and then incubated at four different temperatures (37° C., RT, 4° C., and −20° C.) for up to 2 hr. Prostratin is stable in this formulation even at 37° C. for at least 2 hr.

[12] = mice, IP (1.9 mg/kg), 2-compartment model
[13] = mice, IV (0.76 mg/kg), 2-compartment model
[14] = mice, i.p. 1.9 mg/kg and i.v. 0.76 mg/kg

## CC(=O)O[C@@]12C[C@@H](C)[C@@]3(O)[C@@H](C=C(CO)C[C@]4(O)C(=O)C(C)=C[C@@H]34)[C@@H]1C2(C)C [prostratin, 12-deoxyphorbol 13-acetate]
[1]
  lowest dose to get a reliable increase in reverse transcriptase activity: 50 ng/mL
  stimulation time at which sizeable reverse transcriptase activity is detected: 24 h
[1]; none after 1 h and 4 h
  short incubation (pulsed stimulation) time leading to detectable reverse transcriptase activity: 6 h
[2]
  metabolism (time-dependent loss of parent compound): substantially less
[3]
  individuals on suppressive HAART whose PBMCs showed stimulated HIV-1 production: 4 out of 6
[4]
  metabolism (time-dependent loss of parent compound): greatest
[5]; CD2F1, mouse, plasma, intraperitoneal and intravenous, mice, both the i.p and i.v. routes
  clearance: 200 to 250 mL/min/kg
[5]; CD2F1, mouse, plasma, ip, 1.9 mg/kg, mice, IP (1.9 mg/kg), 2-compartment model, read-out: T1/2 a (converted)
  half-life: 20.4 min
[5]; CD2F1, mouse, plasma, ip, 1.9 mg/kg, mice, IP (1.9 mg/kg), 2-compartment model, read-out: T1/2 b (converted)
  half-life: 12600 min
[5]; CD2F1, mouse, plasma, ip, 1.9 mg/kg, mice, IP (1.9 mg/kg), read-out: T1/2 [1-compartment model] (converted)
  half-life: 20.4 min
[5]; CD2F1, mouse, plasma, iv, 0.76 mg/kg, mice, IV (0.76 mg/kg), 2-compartment model, read-out: T1/2 a (converted)
  half-life: 27.6 min
[5]; CD2F1, mouse, plasma, iv, 0.76 mg/kg, mice, IV (0.76 mg/kg), 2-compartment model, read-out: T1/2 b (converted)
  half-life: 1170 min
[5]; CD2F1, mouse, plasma, iv, 0.76 mg/kg, mice, IV (0.76 mg/kg), read-out: T1/2 [1-compartment model] (converted)
  half-life: 31.8 min
[5]; [12]
  CLt: 219.2 mL/min/kg
  Vc: 11.03 L/kg
[5]; [13]
  CLt: 252.7 mL/min/kg
  Vc: 17.32 L/kg
[5]; [14]
  time out to which drug was detected in plasma: 4 h
  time out to which drug was quantifiable in plasma: 3 h
[5]; mice, i.p. route
  maximally tolerated dose: 1.9 mg/kg
[5]; mice, i.v. route
  maximally tolerated dose: 0.76 mg/kg
[5]; pooled samples from five mice dosed i.p. (1.9 mg/kg), up to 24 hours
  cumulative urinary excretion: < 5 % of the administered dose
[6]
  decrease in parent drug peak area: 14%
[7]
  metabolism (time-dependent loss of parent compound): greatest
[8]; both sexes, iv, monkeys, single bolus i.v. dose, read-out: MTD
  MTD at 15 days: 0.4 to 0.6 mg/kg
[8]; intravenous, as restated in Example 13, read-out: MTD later found in monkeys at NIH
  MTD at 15 days: 0.2 to 0.4 mg/kg
[9]; 0.6 mg/kg
  time to recover from Ketamine compared with the initial doses: 2-4 times
[9]; 0.6 mg/kg dose group, day 3
  increase in level of ALT and AST over baseline: 25-50 fold
[9]; 0.1 and 0.4 mg/kg i.v. bolus, day 1
  time after which plasma drug level is undetectable: 4 h
[9]; all clinical pathology measurements normal by day 15
  reversibility of toxicities: reversible
[9]; day 3, all monkeys
  elevation of fibrinogen levels: 2-3 fold
[9]; day 3, dose-dependent
  CK and LD levels: increases
[9]; female monkeys, 0.4 and 0.6 mg/kg
  level of IL-6: increase
[9]; i.v. bolus 0.1, 0.4 and 0.6 mg/kg
  mortality: no mortality
[9]; single intravenous bolus 0.1 or 0.4 mg/kg
  toxicity at the initial doses: absence of toxicity
[10]
  mean number of revertants per plate: did not cause a positive increase
[11]
  stability in formulation: stable
